Activity calls are given as the source filed them. The rule behind the calls is not given here.
Legend:
[1] = biological target: T1, Neuronal acetylcholine receptor subunit alpha-7 (Homo sapiens, UniProt P36544); assay: Antagonist activity at human alpha7 nAChR expressed in Xenopus oocyte assessed as inhibition of ACh-induced current at 10 uM after 30 secs by electrophysiological assay; format: functional
[2] = biological target: T1, Neuronal acetylcholine receptor subunit alpha-7; assay: Antagonist activity at human alpha7 nAChR expressed in Xenopus oocyte assessed as inhibition of ACh-induced current after 30 secs by electrophysiological assay; format: functional
[3] = biological target: T1, Neuronal acetylcholine receptor subunit alpha-7; assay: Agonist activity at human alpha7 nAChR expressed in Xenopus oocyte assessed as stimulation of ACh-induced current at 10 uM after 30 secs by electrophysiological assay; format: functional
[4] = biological target: T2, Neuronal acetylcholine receptor; alpha3/beta2 (Homo sapiens) (UniProt P17787+P32297); assay: Positive allosteric modulation at human recombinant alpha3beta 2 nAChR expressed in Xenopus oocyte assessed as stimulation of ACh-induced current at 10 uM after 30 secs by electrophysiological assay
[5] = biological target: T2, Neuronal acetylcholine receptor; alpha3/beta2 (Homo sapiens); assay: Negative allosteric modulation at human recombinant alpha3beta 2 nAChR expressed in Xenopus oocyte assessed as inhibition of ACh-induced current at 100 uM after 30 secs by electrophysiological assay

T1 sequence (P36544 whole entry): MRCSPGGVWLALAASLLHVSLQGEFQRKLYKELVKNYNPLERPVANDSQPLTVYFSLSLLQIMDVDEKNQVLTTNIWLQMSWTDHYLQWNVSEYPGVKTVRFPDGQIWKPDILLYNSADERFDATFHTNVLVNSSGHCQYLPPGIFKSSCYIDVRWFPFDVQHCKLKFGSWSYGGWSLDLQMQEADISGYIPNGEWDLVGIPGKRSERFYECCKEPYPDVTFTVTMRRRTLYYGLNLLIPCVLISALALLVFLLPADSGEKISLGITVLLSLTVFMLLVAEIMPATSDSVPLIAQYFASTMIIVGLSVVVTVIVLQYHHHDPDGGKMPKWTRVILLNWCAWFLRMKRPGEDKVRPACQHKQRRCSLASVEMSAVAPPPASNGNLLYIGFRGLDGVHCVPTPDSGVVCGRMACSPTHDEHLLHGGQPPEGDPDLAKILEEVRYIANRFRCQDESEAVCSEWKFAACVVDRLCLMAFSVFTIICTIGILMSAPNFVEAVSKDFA

SMILES	inhibition [1]	Activity [3]	other results
O=C(C1COc2ccccc2O1)N1CCCN2CCC[C@H]2C1 (some centres undefined)	54%		
O=C(NCC12CCCN1CCC2)C1COc2ccccc2O1 (centres undefined)	29%		
CC(C)N1CCCCN(C(=O)c2ccc3c(c2)OCCO3)CC1	25%		IC50 [2]: 6.9 µM
O=C(NCC1CC2CCN1CC2)c1ccc2c(c1)OCCO2 (racemic)	79%		
CCC#CCN1CCC[C@@H]1CNC(=O)c1ccc2ncsc2c1	13%		IC50 [2]: 40 µM
CC(C)N1CCC[C@@H]1CNC(=O)Oc1ccc(Br)cc1	27%	inactive	
CCCN1CCC[C@@H]1CNC(=O)c1ccc(F)cc1	22%	inactive	
CCCC#CCN1CC[C@H](NC(=O)c2ccc3ncsc3c2)C1	81%	inactive	
CC(C)N1CCCN(C(=O)c2ccc3c(c2)OCCO3)CC1		inactive	
CC(C)N1CCN(C(=O)c2ccc(Cl)cc2)CC1	84%		
CCN1CCC[C@@H]1CNC(=O)c1ccc(Cl)cc1	42%	inactive	
O=C(NCC1=CC2CCN1CC2)c1ccc(F)cc1	36%	inactive	
CN1CCC2CC1CN(C(=O)Oc1ccc(Br)cc1)C2 (racemic)			Activity [4]: Active; Activity [5]: Active
O=C(NCC12CCCN1CCC2)c1cccc(Cl)c1	32%		
O=C(NCC12CCCN1CCC2)c1ccccc1Cl	35%		
Cc1ccc(C(=O)NCC23CCCN2CCC3)cc1	25%		
O=C(c1ccc2c(c1)OCCO2)N1CCCN2CCC[C@@H]2C1	40%	inactive	
CCC#CCN1CCC[C@@H]1CNC(=O)C1COc2ccccc2O1 (some centres undefined)	74%		
CC(C)N1CCN(C(=O)c2ccc3c(c2)OCCO3)CC1	81%		
O=C(NCC12CCCN1CCC2)c1ccc2ncsc2c1	34%		

SMILES	inhibition [1]	Activity [3]	other results
O=C(c1ccc(F)cc1)N1CCCN2CCC[C@@H]2C1	58%	inactive	
O=C(NCC1=CC2CCN1CC2)c1ccc2c(c1)OCCO2	50%	inactive	
CC(C)N1CCN(C(=O)C2COc3ccccc3O2)CC1 (centres undefined)	90%		
CN1CC2CCC1C(CNC(=O)c1ccc3c(c1)OCCO3)C2 (racemic; form 2)	77%	inactive	
CCN1CCC[C@@H]1CNC(=O)c1ccc2ncsc2c1	53%	inactive	
CN(C)CCNC(=O)c1ccc(Cl)cc1	68%		
CCC#CCN1CCC[C@@H]1CNC(=O)c1ccc(Cl)cc1	21%		
O=C(N[C@@H]1CCCC[C@H]1N1CCCCC1)Oc1ccc(Br)cc1 (racemic)	34%		IC50 [2]: 10 µM
CC(C)N1C[C@H]2C[C@@H]1CN2C(=O)c1ccc(Cl)cc1	69%	inactive	
CCN1CCC[C@@H]1CNC(=O)Oc1ccc(Br)cc1	53%	inactive	
O=C(c1ccc2ncsc2c1)N1CCCN2CCC[C@H]2C1	53%		
O=C(c1ccc(Br)cc1)N1CCCN2CCC[C@@H]2C1	40%	inactive	
CN1CC2CCC1C(CNC(=O)c1ccc(F)cc1)C2 (racemic; form 1)	52%		
CN(C)CCNC(=O)C1COc2ccccc2O1 (centres undefined)	52%		
O=C(c1ccc2c(c1)OCCO2)N1CCCN2CCC[C@H]2C1	56%		
O=C(NCC12CCCN1CCC2)c1ccc(Br)cc1	9%		
CN1CC2CCC1C(CNC(=O)c1ccc(F)cc1)C2 (racemic; form 2)	55%	inactive	
C[C@H]1CN2CCCC[C@@H]2CN1C(=O)c1ccc(Cl)cc1	65%		
CCC#CCN1CCC[C@@H]1CNC(=O)c1ccc2c(c1)OCCO2	96%		
CN1CC2CCC1C(CNC(=O)c1ccc(Cl)cc1)C2 (racemic; form 2)	61%	inactive	

— ChEMBL document CHEMBL2062445, “Synthesis and nicotinic receptor activity of chemical space analogues of N-(3R)-1-azabicyclo[2.2.2]oct-3-yl-4-chlorobenzamide (PNU-282,987) and 1,4-diazabicyclo[3.2.2]nonane-4-carboxylic acid 4-bromophenyl ester (SSR180711)” (J Med Chem, 2012)
